Experimental data: the OligoGym collection
Values joined by “and” are separate entries in the source; they are usually repeats but may differ in a detail not shown here. Equal values may be shown once. After the bases stand the sugars from the 5' end (letter, count) and the backbone: PS all phosphorothioate, else s phosphorothioate and o phosphodiester by linkage. Methylation of C is not given here. e = 2'-O-(2-methoxyethyl) (MOE); k = constrained ethyl (cEt); d = 2'-deoxy (DNA)

Target: SOD1
Details: ASO

For “ATAGCCTCATAATAAGTGCC (sugars e5 d10 e5, PS)”, the target mRNA inhibition (HepG2, 5 µM) was 19%.
“ATCACAGAATCTTCAATAGA (sugars e5 d10 e5, PS)” was tested, and the target mRNA inhibition (HepG2, 5 µM) was 11% and 10%.
For “ATCCAAGGGAATGTTTA (sugars e2 k2 d8 k2 e3, PS)”, the target mRNA inhibition (HepG2, 4 µM) was 35%.
“ATCCAAGGGAATGTTTA (sugars e2 k2 d9 k2 e2, PS)” was tested, and the target mRNA inhibition (HepG2, 4 µM) was 39%.
Work on “ATCTGCTTTTTCATGGA (sugars e3 k2 d7 k2 e3, PS)” yielded a target mRNA inhibition (HepG2, 3 µM) of 42%.
“ATCTTCCAAGTGATCAT (sugars e2 k2 d9 k2 e2, PS)” gave a target mRNA inhibition (HepG2, 5 µM) of 38%.
For “ATCTTCCAAGTGATCAT (sugars e3 k2 d7 k2 e3, PS)”, the target mRNA inhibition (HepG2, 3 µM) was 7%.
With “ATGAACATGGAATCCAT (sugars e3 k2 d7 k2 e3, PS)” the target mRNA inhibition (HepG2, 3 µM) was 8%.
In the case of “ATGTTTATCAGGATACA (sugars e3 k1 d8 k1 e4, linkages s1 o2 s9 o2 s2)”, the target mRNA inhibition (A431, 0.062 µM) is reported as 7%, the target mRNA inhibition (A431, 0.185 µM) is reported as 18% and the target mRNA inhibition (A431, 0.556 µM) is reported as 38%. The target mRNA inhibition (A431, 1.667 µM) was 53%, the target mRNA inhibition (A431, 5 µM) was 68% and the target mRNA inhibition (A431, 15 µM) was 79%. It also gave a target mRNA inhibition (SH-SY5Y, 0.062 µM) of 4%, a target mRNA inhibition (SH-SY5Y, 0.185 µM) of 30% and a target mRNA inhibition (SH-SY5Y, 0.556 µM) of 51%. The target mRNA inhibition (SH-SY5Y, 1.667 µM) was 68%, the target mRNA inhibition (SH-SY5Y, 5 µM) was 88% and the target mRNA inhibition (SH-SY5Y, 15 µM) was 92%.
“ATGTTTATTGGGCGATC (sugars e3 k2 d7 k2 e3, PS)” showed a target mRNA inhibition (HepG2, 3 µM) of 28%.
With “ATTCACAGGCTTGAATG (sugars e2 k2 d9 k2 e2, PS)” the target mRNA inhibition (HepG2, 5 µM) was 29%.
“ATTGATGATGCCCTGCACTG (sugars e5 d10 e5, PS)” showed a target mRNA inhibition (HepG2, 4 µM) of 8%.
Sequence “ATTTCTACAGCTAGCAG (sugars e2 k2 d9 k2 e2, PS)” has a target mRNA inhibition (HepG2, 0.1875 µM) of 10%, a target mRNA inhibition (HepG2, 0.75 µM) of 47% and a target mRNA inhibition (HepG2, 3 µM) of 77%. For the same sequence, the target mRNA inhibition (HepG2, 4 µM) was 75% and the target mRNA inhibition (HepG2, 12 µM) was 91%.
For “CAAGTGATCATAAATCA (sugars e2 k2 d8 k2 e3, PS)”, the target mRNA inhibition (HepG2, 5 µM) was 47%.
For “CAAGTGATCATAAATCA (sugars e2 k2 d9 k2 e2, PS)”, the target mRNA inhibition (HepG2, 5 µM) was 29%.
Sequence “CAAGTTTAATACCCATC (sugars e2 k2 d8 k2 e3, PS)” has a target mRNA inhibition (HepG2, 5 µM) of 52%.
Sequence “CAATTACACCACAAGCC (sugars e2 k2 d8 k2 e3, PS)” has a target mRNA inhibition (HepG2, 4 µM) of 58%.
Sequence “CACAAGCCAAACGACTTCCA (sugars e5 d10 e5, PS)” has a target mRNA inhibition (HepG2, 5 µM) of 47%.
Work on “CACACCTTCACTGGTCC (sugars e3 k2 d7 k2 e3, PS)” yielded a target mRNA inhibition (HepG2, 3 µM) of 12%.
“CACAGAATCTTCAATAGACA (sugars e5 d10 e5, PS)” was tested, and the target mRNA inhibition (HepG2, 5 µM) was 10% and 14%.
With “CACATTGCCCAAGTCTCCAA (sugars e5 d10 e5, PS)” the target mRNA inhibition (HepG2, 5 µM) was 36% and 19%.
“CACTACAGGTACTTTAA (sugars e2 k2 d8 k2 e3, PS)” showed a target mRNA inhibition (HepG2, 5 µM) of 27%.
Work on “CACTTTTAAGATTACAG (sugars e2 k2 d9 k2 e2, PS)” yielded a target mRNA inhibition (HepG2, 5 µM) of 49%.
Work on “CAGCAGTCACATTGCCC (sugars e3 k2 d7 k2 e3, PS)” yielded a target mRNA inhibition (HepG2, 3 µM) of 7%.
Work on “CAGCTAGCAGGATAACA (sugars e3 k2 d7 k2 e3, PS)” yielded a target mRNA inhibition (HepG2, 3 µM) of 21%.
Work on “CAGGATACATTTCTACA (sugars e2 k2 d8 k2 e3, PS)” yielded a target mRNA inhibition (HepG2, 0.1875 µM) of 30%, a target mRNA inhibition (HepG2, 0.75 µM) of 62% and a target mRNA inhibition (HepG2, 3 µM) of 81%. It also gave a target mRNA inhibition (HepG2, 4 µM) of 79% and a target mRNA inhibition (HepG2, 12 µM) of 94%.
Work on “CAGGATACATTTCTACA (sugars e2 k2 d9 k2 e2, PS)” yielded a target mRNA inhibition (HepG2, 0.1875 µM) of 38%, a target mRNA inhibition (HepG2, 0.75 µM) of 71% and a target mRNA inhibition (HepG2, 3 µM) of 89%. The target mRNA inhibition (HepG2, 4 µM) was 85% and 86% and the target mRNA inhibition (HepG2, 12 µM) was 91% and 97%.
Work on “CAGGATACATTTCTACAGCT (sugars e5 d10 e5, linkages sososssssssssssosos)” yielded a target mRNA inhibition (A431, 0.062 µM) of 20%, a target mRNA inhibition (A431, 0.185 µM) of 29% and a target mRNA inhibition (A431, 0.556 µM) of 49%. It also gave a target mRNA inhibition (A431, 1.667 µM) of 69%, a target mRNA inhibition (A431, 5 µM) of 76% and a target mRNA inhibition (A431, 15 µM) of 83%. For the same sequence, the target mRNA inhibition (SH-SY5Y, 0.062 µM) was 0%, the target mRNA inhibition (SH-SY5Y, 0.185 µM) was 17% and the target mRNA inhibition (SH-SY5Y, 0.556 µM) was 39%. It also gave a target mRNA inhibition (SH-SY5Y, 1.667 µM) of 59%, a target mRNA inhibition (SH-SY5Y, 5 µM) of 85% and a target mRNA inhibition (SH-SY5Y, 15 µM) of 82%.
“CAGGGTTTTTATTCACA (sugars e3 k2 d7 k2 e3, PS)” was tested, and the target mRNA inhibition (HepG2, 3 µM) was 17%.
With “CAGTCACATTGCCCAAGTCT (sugars e5 d10 e5, PS)” the target mRNA inhibition (HepG2, 5 µM) was 40% and 27%.
“CAGTGTTTAATGTTTAT (sugars e2 k2 d8 k2 e3, PS)” showed a target mRNA inhibition (HepG2, 0.1875 µM) of 30%, a target mRNA inhibition (HepG2, 0.75 µM) of 61% and a target mRNA inhibition (HepG2, 3 µM) of 79%. For the same sequence, the target mRNA inhibition (HepG2, 4 µM) was 75%, the target mRNA inhibition (HepG2, 5 µM) was 77% and the target mRNA inhibition (HepG2, 12 µM) was 81% and 87%.
In the case of “CAGTTTCTCACTACAGGTAC (sugars e5 d10 e5, PS)”, the target mRNA inhibition (HepG2, 5 µM) is reported as 25%.
“CATAATAAGTGCCATAC (sugars e2 k2 d8 k2 e3, PS)” was tested, and the target mRNA inhibition (HepG2, 5 µM) was 32%.
Work on “CATCCAAGGGAATGTTT (sugars e3 k2 d7 k2 e3, PS)” yielded a target mRNA inhibition (HepG2, 3 µM) of 16%.
Work on “CATCTGCTTTTTCATGG (sugars e3 k2 d7 k2 e3, PS)” yielded a target mRNA inhibition (HepG2, 3 µM) of 70%.
“CATCTGTGATTTAAGTC (sugars e2 k2 d8 k2 e3, PS)” showed a target mRNA inhibition (HepG2, 5 µM) of 42%.
